Laboratory results taken from article doi:10.1101/757047v1 (biorxiv, 2019).
pIC50, pKi: −log10 of the molar value. Where two headings read alike, the source gives them in different places.

What was measured:
GAK = target: T1, GAK (Homo sapiens, UniProt O14976); experiment: TR-FRET binding displacement assay
T1 sequence (O14976 12-347 limits assumed): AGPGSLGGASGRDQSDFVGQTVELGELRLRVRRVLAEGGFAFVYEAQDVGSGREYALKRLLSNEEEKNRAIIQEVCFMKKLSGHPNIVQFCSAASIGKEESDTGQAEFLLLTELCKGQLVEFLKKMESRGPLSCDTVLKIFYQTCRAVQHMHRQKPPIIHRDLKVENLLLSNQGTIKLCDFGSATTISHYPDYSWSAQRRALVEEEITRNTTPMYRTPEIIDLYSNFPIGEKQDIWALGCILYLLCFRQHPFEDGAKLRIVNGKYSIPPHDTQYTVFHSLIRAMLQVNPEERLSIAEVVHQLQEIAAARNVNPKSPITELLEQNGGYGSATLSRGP

SLK [1] = target: T2, SLK (Homo sapiens, UniProt Q9H2G2); experiment: TR-FRET binding displacement assay
T2 sequence (Q9H2G2 34-292): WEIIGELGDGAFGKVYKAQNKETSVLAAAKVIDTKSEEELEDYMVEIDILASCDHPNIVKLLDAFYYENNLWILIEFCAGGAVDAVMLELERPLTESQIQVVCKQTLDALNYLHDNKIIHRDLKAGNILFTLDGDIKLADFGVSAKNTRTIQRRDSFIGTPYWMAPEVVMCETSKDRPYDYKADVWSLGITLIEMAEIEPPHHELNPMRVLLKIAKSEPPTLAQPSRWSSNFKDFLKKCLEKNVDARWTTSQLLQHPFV

STK10 [2] = target: T3, STK10 (Homo sapiens, UniProt O94804); experiment: TR-FRET binding displacement assay
T3 sequence (O94804 36-294 limits assumed): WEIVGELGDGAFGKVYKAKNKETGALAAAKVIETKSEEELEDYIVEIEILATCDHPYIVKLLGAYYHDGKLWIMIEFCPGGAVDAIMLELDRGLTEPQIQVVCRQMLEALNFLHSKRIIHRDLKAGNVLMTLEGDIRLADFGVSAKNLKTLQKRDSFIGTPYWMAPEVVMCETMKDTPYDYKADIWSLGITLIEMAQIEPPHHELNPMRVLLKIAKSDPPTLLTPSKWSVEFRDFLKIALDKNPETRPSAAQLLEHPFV

[3] = target: T4, full length GAK protein N-terminally fused with NanoLuc luciferase (Homo sapiens, UniProt O14976); experiment: nanoBRET cellular target engagement; type: cell-based
T4 sequence (O14976 2-1311): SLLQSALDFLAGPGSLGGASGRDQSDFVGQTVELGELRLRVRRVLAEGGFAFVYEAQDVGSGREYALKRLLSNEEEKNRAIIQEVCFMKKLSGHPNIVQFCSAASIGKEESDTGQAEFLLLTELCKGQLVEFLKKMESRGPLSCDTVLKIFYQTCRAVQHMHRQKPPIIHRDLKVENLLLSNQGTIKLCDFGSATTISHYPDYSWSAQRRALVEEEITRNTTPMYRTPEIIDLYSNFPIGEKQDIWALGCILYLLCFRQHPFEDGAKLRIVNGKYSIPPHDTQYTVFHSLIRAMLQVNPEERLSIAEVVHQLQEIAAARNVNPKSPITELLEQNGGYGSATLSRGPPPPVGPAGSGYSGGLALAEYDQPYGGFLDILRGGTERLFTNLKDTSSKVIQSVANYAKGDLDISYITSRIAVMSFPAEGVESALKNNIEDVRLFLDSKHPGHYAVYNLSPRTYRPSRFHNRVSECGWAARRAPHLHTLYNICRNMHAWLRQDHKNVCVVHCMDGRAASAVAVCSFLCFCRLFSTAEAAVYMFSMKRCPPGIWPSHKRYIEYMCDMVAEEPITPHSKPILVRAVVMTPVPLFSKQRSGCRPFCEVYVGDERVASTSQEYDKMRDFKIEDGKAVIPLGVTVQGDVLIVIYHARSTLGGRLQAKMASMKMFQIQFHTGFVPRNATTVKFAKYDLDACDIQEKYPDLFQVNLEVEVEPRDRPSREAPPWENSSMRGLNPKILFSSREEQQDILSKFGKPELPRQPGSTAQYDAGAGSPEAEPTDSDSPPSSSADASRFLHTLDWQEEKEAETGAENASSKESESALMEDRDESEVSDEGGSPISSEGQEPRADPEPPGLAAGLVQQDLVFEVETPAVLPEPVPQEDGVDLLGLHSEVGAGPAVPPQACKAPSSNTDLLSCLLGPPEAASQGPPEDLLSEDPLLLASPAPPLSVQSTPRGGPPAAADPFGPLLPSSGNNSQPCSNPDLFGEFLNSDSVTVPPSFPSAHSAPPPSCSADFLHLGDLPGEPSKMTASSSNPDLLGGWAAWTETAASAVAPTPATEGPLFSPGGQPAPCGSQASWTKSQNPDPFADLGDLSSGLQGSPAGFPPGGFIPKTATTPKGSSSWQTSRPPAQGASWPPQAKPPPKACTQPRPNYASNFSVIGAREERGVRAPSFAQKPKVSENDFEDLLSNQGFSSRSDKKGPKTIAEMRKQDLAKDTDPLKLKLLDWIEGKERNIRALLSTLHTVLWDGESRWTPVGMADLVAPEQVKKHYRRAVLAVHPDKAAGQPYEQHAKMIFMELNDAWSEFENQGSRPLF

[4] = target: T4, full length GAK protein N-terminally fused with NanoLuc luciferase; experiment: cell-based; set-up: species or system HEK293T
SLK [5] = target: T2, SLK; experiment: biochemical
[6] = target: T4, full length GAK protein N-terminally fused with NanoLuc luciferase; experiment: cell-based; set-up: species or system HEK293T; remark: listed apart in the source
STK10 [7] = target: T3, STK10; experiment: biochemical
[8] = HEK293T cells, tracer displacement, n=[…] mean
[9] = ATP site tracer displacement, 16-point dose response

SMILES | pKi (SLK [1]) | pKi (STK10 [2]) | pIC50 [4] | also measured
COc1cc2ncnc(Nc3ccc(F)c(Cl)c3)c2cc1NC(=O)/C=C/CN1CCCCC1 [Dacomitinib] | 5.96 | 6.23 | – | pKi (GAK): 8.15; pIC50 [3]: 7.31
COc1cc2ncnc(Nc3ccc(F)c(Cl)c3)c2cc1OCCCN1CCOCC1 [Gefitinib] | – | 6.47 | – | –
CCOc1cc2ncc(C#N)c(Nc3ccc(OCc4ccccn4)c(Cl)c3)c2cc1NC(=O)/C=C/CN(C)C [Neratinib] | – | – | – | pKi (GAK): 6.54; pIC50 [3]: 5.64
CCOc1cc2ncc(C#N)c(Nc3ccc(F)c(Cl)c3)c2cc1NC(=O)/C=C/CN(C)C [Pelitinib] | 6.55 | – | – | pIC50 [3]: 7.92
C#Cc1cccc(Nc2ccnc3cc(OCCOC)c(OCCOC)cc23)c1 [compound 1, erlotinib quinoline] | 5.92 | 6.14 | – | pKi (GAK): 7.00; pIC50 [3, 8]: 5.38
COc1cc(Nc2ccnc3ccc(Br)cc23)cc(OC)c1OC [compound 2, SGC-GAK-1] | 4.47 | 5.34 | – | –
COc1cc2nccc(Nc3cc(OC)c(OC)c(OC)c3)c2cc1OC [compound 3, 3] | 5.15 | 5.96 | – | pIC50 [3]: 7.59
COc1cc(Nc2ccnc3ccccc23)cc(OC)c1OC [compound 7, 7] | < 4.26 | 4.56 | – | pKi (GAK; [9]): 7.40; pIC50 [3]: 6.14
COc1cc(Nc2ccnc3ccc(F)cc23)cc(OC)c1OC [compound 8, 8] | 5.29 | 4.34 | – | –
COc1cc(Nc2ccnc3cc(F)c(F)cc23)cc(OC)c1OC [compound 9, 6,7-difluoro-N-(3,4,5-trimethoxyphenyl)quinolin-4-amine] | 4.59 | 5.57 | – | pKi (GAK): 8.16; pIC50 [3]: 6.85
COc1cc(Nc2ccnc3ccc(Cl)cc23)cc(OC)c1OC [compound 10, 10] | 4.96 | 6.00 | – | pKi (GAK): 9.17; pIC50 [3]: 6.68
COc1cc(Nc2ccnc3ccc(I)cc23)cc(OC)c1OC [compound 11, 11] | 5.24 | 4.61 | – | pKi (GAK): 8.42; pIC50 [3]: 6.96
COc1cc(Nc2ccnc3ccc(C(F)(F)F)cc23)cc(OC)c1OC [compound 12, 12] | 4.48 | 5.34 | – | –
COc1cc(Nc2ccnc3ccc(C#N)cc23)cc(OC)c1OC [compound 13, 13] | 4.72 | 5.77 | – | pKi (GAK; [9]): 8.82; pIC50 [3]: 6.44
COc1ccc2nccc(Nc3cc(OC)c(OC)c(OC)c3)c2c1 [compound 14, 14] | < 4.26 | 4.92 | – | pKi (GAK; [9]): 7.89; pIC50 [3]: 6.44
COc1cc(Nc2ccnc3ccc(S(C)(=O)=O)cc23)cc(OC)c1OC [compound 15, 15] | 4.64 | 5.62 | – | –
COc1cc(Nc2ccnc3cc(F)ccc23)cc(OC)c1OC [compound 16, 16] | 4.77 | 5.80 | – | –
COc1cc(Nc2ccnc3cc(Cl)ccc23)cc(OC)c1OC [compound 17, 17] | 5.68 | 6.68 | – | pKi (GAK): 8.89; pIC50 [3]: 6.60
COc1cc(Nc2ccnc3cc(Br)ccc23)cc(OC)c1OC [compound 18, 18] | 5.57 | 6.42 | – | pKi (GAK): 8.31; pIC50 [3]: 6.57
COc1cc(Nc2ccnc3cc(I)ccc23)cc(OC)c1OC [compound 19, 19] | 5.77 | 6.68 | – | pKi (GAK): 8.36; pIC50 [3]: 7.13
COc1cc(Nc2ccnc3cc(C(F)(F)F)ccc23)cc(OC)c1OC [compound 20, 20] | 5.49 | 6.43 | – | pKi (GAK; [9]): 8.21; pIC50 [3, 8]: 6.28
COc1cc(Nc2ncnc3ccccc23)cc(OC)c1OC [compound 23, 23] | – | – | 5.34 | –
COc1cc(Nc2ncnc3ccc(C)cc23)cc(OC)c1OC [compound 24, 24] | – | – | 5.68 | –
COc1cc(Nc2ncnc3ccc(F)cc23)cc(OC)c1OC [compound 25, 25] | – | – | 5.44 | –
COc1cc(Nc2ncnc3cc(F)c(F)cc23)cc(OC)c1OC [compound 26, 26] | – | – | < 5.30 | –
C#Cc1cccc(Nc2ncnc3cc(Cl)ccc23)c1 [compound 63, 63] | – | – | – | pKi (SLK [5]): 6.44; pIC50 [6]: < 5.30; pKi (STK10 [7]): 6.36
C#Cc1cccc(Nc2ncnc3ccc(S(C)(=O)=O)cc23)c1 [compound 69, N-(3-ethynylphenyl)-6-(methylsulfonyl)quinazolin-4-amine] | – | – | – | pKi (SLK [5]): 5.89; pIC50 [6]: < 5.30; pKi (GAK): 6.38; pKi (STK10 [7]): 5.89
C#Cc1cccc(Nc2ncnc3cc(OC)c(OC)cc23)c1 [compound 71] | – | – | – | pIC50 [6]: 7.10
C#Cc1cccc(Nc2ncnc3cc4c(cc23)OCCO4)c1 [compound 74, 74] | – | – | – | pKi (SLK [5]): 5.44; pIC50 [6]: 5.49; pKi (STK10 [7]): 5.77
C#Cc1cccc(Nc2c(C#N)cnc3cc(OC)c(OC)cc23)c1 [compound 82, 82] | – | – | – | pKi (GAK; [9]): 9.49; pIC50 ([3]; HEK293T cells, tracer displacement): 7.40

Second part, led by results:

pKi (SLK [1]) | pKi (STK10 [2]) | pIC50 [4] | SMILES | also measured
– | – | 5.62 | COc1cc(Nc2ncnc3ccc(Cl)cc23)cc(OC)c1OC [compound 27, 27] | –
– | – | 5.74 | COc1cc(Nc2ncnc3ccc(Br)cc23)cc(OC)c1OC [compound 28, 28] | –
– | – | 6.05 | COc1cc(Nc2ncnc3ccc(I)cc23)cc(OC)c1OC [compound 29, 29] | –
– | – | 5.35 | COc1cc(Nc2ncnc3ccc(C(F)(F)F)cc23)cc(OC)c1OC [compound 30, 30] | –
– | – | < 5.30 | COc1cc(Nc2ncnc3cc(F)ccc23)cc(OC)c1OC [compound 31, 31] | –
– | – | 5.49 | COc1cc(Nc2ncnc3cc(Cl)ccc23)cc(OC)c1OC [compound 32, 32] | –
– | – | 5.38 | COc1cc(Nc2ncnc3cc(Br)ccc23)cc(OC)c1OC [compound 33, 33] | –
– | – | 5.62 | COc1cc(Nc2ncnc3cc(I)ccc23)cc(OC)c1OC [compound 34, 34] | –
– | – | < 5.30 | COc1cc(Nc2ncnc3cc(C(F)(F)F)ccc23)cc(OC)c1OC [compound 35, 35] | –
– | – | < 5.30 | COc1cc(Nc2ncnc3cc(C#N)ccc23)cc(OC)c1OC [compound 36, 4-((3,4,5-trimethoxyphenyl)amino)quinazoline-7-carbonitrile] | pKi (GAK): 6.68
– | – | < 5.30 | COc1cc(Nc2ncnc3ccc(C#N)cc23)cc(OC)c1OC [compound 37, 37] | –
– | – | < 5.30 | COc1cc(Nc2ncnc3ccc(S(C)(=O)=O)cc23)cc(OC)c1OC [compound 38, 38] | –
– | – | 5.47 | COc1ccc2ncnc(Nc3cc(OC)c(OC)c(OC)c3)c2c1 [compound 39, 39] | –
– | – | 5.80 | COc1ccc2c(Nc3cc(OC)c(OC)c(OC)c3)ncnc2c1 [compound 41, 41] | –
– | – | 5.52 | COCCOc1cc2ncnc(Nc3cc(OC)c(OC)c(OC)c3)c2cc1OCCOC [compound 42, 42] | –
6.85 | 6.92 | – | C#Cc1cccc(Nc2ncnc3cc(OC)c(OC)cc23)c1 [compound 71, 71] | pKi (GAK): 9.00
